Data as given in patent US4780476A, “Azoniaspironortropanol esters as asthma therapeutics and broncholytics” (Madaus GmbH & Co., priority 1985, dated 1988).

System: T1, isolated tracheal spirals of the guinea pig (Cavia porcellus)
T1 construct: the whole of the trachea is roughly freed beginning from the larynx up to the tracheal bifurcation, removed and transferred; from tissue; host or cells: isolated trachea (spiral strips) of male Pirbright white guinea pigs
Test: anticholinergic effectiveness on isolated tracheal spirals (antagonism against acetyl-β-methylcholine chloride)
Conditions: ratio of maximum agonist effect in presence (EAmB) and absence (EAm) of antagonist
Excerpt: A model for this is the measurement of the anticholinergic effectiveness on isolated tracheal spirals of the guinea pig.
The test substance used was 3α-benziloyloxynortropane-8-spiro-1'-pyrrolidinium chloride (trospium chloride; MP 194), ipratropium bromide being used as comparison substance.
There is to be determined the anticholinergic effectiveness of MP 194 in comparison with the reference substance ipratropium bromide on the isolated tracheal spirals of the guinea pig.
3.1.1. animal species: guinea pig
3.1.2. animal strain: Pirbright white
3.3.1. test substance (test antagonist) trospium chloride (MP 194) (M.W. 428)
3.3.2. reference substance (reference antagonist) ipratropium bromide (Atrovent) (M.W. 412.4)
3.3.3.1. acetyl-β-methylcholine chloride (Sigma) (M.W. 195.7)
The guinea pig is stunned by a blow on the neck. Subsequently, the whole of the trachea is roughly freed beginning from the larynx up to the tracheal bifurcation, removed and transferred to tempered (37° C.) and carbogenized tyrode solution. After surrounding connective tissue has been removed as far as possible, the preparation is cut up spirally by means of fine scissors at an angle of about 45° and separated into two equal sized sections. After weighing, both preparations are provided proximally and distally with a silk thread. One thread serves for fixing the preparation by means of a loop to the bottom of the bath and the other is connected via a hook with the transducer above the bath vessel.
Subsequently, the preparations, corresponding to the calibration, are prestressed with about 80 mN and equilibrated from 50-100 minutes. During the equilibration phase, the nutrient solution in the bath vessels is renewed in 15 minute intervals. As soon as the resting muscle tonus of the preparation has stabilized, there takes place the cumulative addition of the agonist, whereby the addition of the next highest concentration first takes place when no further increase of contraction is recognisable (plateau). When the maximum contraction height of the preparation is achieved, the cumulative agonist addition is ended and the preparation is rinsed. After a further equilibration phase (v. supra), the cumulative addition of the agonist is repeated but this time in the presence of the test or reference antagonist.
3.6.1. The perfusion part consists of an L-shaped organ bath in the hollow space of which (longer limb) runs a double glass spiral through which the nutrient solution is passed into the actual bath vessel (28 ml. content; shorter limb). This bath vessel is divided into two chambers which are, however, connected together by two transverse connections. […] The inlet chambers as well as the feeding glass spirals are tempered from the outside to 37° C. by a separate liquid circulation. This tempering takes place with the help of a "Colora" ultra-thermostat type K (Colora Messtechnik GmbH, Dusseldorf, Germany) which serves as thermostat and pump. In order, in case of need, always to have available ready-for-use nutrient solution, above the organ bath is provided a double-walled storage container in which the nutrient solution is also tempered and carbogenised. This is connected via a glass stopcock and a polypropylene tube with double glass spiral in the interior of the organ bath.
3.6.2. The measurement and recording part includes a transducer (Statham-Universal-Zelle UC-2; Hugo Sachs Elektronic KG, Hugstetten, Germany). By means of a hanging-in weight, a force of 40 mN is produced on the transducer which passes as electrical signal via a connecting cable to a bridge amplifier. The amplification is smoothly so regulated that the force provided corresponds to a constant value on the scale or an analogous value on the millimeter paper of the recorder (dependent upon the amplification; see below). After fixing the organ, the preparation is prestressed to the doubled mark, corresponding to 80 mN. […]

T1 sequence (H0W1Z3 1-590): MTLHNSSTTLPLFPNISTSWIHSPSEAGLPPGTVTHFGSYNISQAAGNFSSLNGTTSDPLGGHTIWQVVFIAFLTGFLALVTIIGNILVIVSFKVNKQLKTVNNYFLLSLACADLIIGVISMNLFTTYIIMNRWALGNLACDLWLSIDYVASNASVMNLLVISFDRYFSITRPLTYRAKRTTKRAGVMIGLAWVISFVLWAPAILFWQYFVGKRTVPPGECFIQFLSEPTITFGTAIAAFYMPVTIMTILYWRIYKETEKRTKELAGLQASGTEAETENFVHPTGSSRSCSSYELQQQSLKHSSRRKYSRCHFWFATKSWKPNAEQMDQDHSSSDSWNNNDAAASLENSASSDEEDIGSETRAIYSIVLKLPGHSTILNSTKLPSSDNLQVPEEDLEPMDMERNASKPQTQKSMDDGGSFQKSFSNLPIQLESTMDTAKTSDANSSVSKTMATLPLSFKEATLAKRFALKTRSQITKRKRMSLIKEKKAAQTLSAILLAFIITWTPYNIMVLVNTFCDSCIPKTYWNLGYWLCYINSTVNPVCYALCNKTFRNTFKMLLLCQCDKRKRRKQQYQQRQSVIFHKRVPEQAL

Question: With `O=C(O[C@H]1C[C@H]2CC[C@@H](C1)[N+]21CCCC1)C(O)(c1ccccc1)c1ccccc1` [trospium chloride, 3α-benziloyloxynortropane-8-spiro-1'-pyrrolidinium chloride] as the compound, how does the “EAmB/EAm ± s” value read?
Answer: 1.09 ± 0.22
